From publication PMC3517478 (BMC Neurology, 2012)
Changes are numbered by the printed parent chain.

Key:
[1] = target: T1, human α1R271L-GlyR expressed in HEK 293 cells (Homo sapiens, UniProt P23415, R299L); conditions: R271L
T1 sequence (P23415 29-457 R299L): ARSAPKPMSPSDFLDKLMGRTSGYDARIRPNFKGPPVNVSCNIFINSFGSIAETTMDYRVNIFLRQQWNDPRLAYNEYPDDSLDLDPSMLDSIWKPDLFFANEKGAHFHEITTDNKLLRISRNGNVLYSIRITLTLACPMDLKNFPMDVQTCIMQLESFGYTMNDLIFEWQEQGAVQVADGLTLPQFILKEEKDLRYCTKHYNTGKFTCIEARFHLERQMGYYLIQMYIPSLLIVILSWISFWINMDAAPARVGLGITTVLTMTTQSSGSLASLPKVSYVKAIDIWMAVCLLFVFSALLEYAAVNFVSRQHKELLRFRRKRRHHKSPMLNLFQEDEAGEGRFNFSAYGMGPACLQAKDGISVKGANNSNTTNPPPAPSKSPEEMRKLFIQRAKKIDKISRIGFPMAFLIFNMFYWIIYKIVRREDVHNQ
Excerpt: (§1) Human α1-, α1R271Q-, α1R271L-, α1R271K and α1S267I-GlyR subunits were transiently transfected into human embryonic kidney cells (HEK 293, ATCC, Manassas, USA). The wild type α1-GlyR -cDNA was cloned in pCIS2 (Invitrogen, San Diego, USA) vector and provided by Prof. Heinrich Betz (Max-Planck-Institut für Hirnforschung, Frankfurt am Main, Germany). For the plasmid cDNA of the mutated α1R271Q-, α1R271L-, α1R271K- and α1S267I-GlyR the eukaryotic expression vector pcDNA1amp (Invitrogen, San Diego, USA), under the control of cytomegalovirus promoter, was used. For site-directed mutagenesis, single stranded template cDNA was synthesized from M13 origin of replication and the mutations of arginine residue (R) at position 271 to glutamine (R271Q), leucine (R271L) or lysine (R271K) and mutation of serine residue (S) at position 267 to isoleucine (S267I) were generated using standard procedures. […] Wild type and mutated α1-GlyR subunits efficiently form homomeric receptors in heterologous expression systems.
(§2) HEK 293 cells were cultured in medium containing HAMS’F-12 (Biochrom, Berlin, Germany), supplemented with 10% fetal bovine serum (FBS, Biochrom, Berlin, Germany), 100 U ml^–1 penicillin and 100μgml^–1 streptomycin (Gibco BRL, Life Technologies, Karlsruhe, Germany) at 37°C in a 5% CO2/ 95% air incubator. For transfection cells were suspended in a buffer containing 50mM K2HPO4 (Fluka BioChemika, Seelze, Germany), 20mMK-acetate (Sigma-Aldrich, Taufkirchen, Germany) and 25mM MgSO4 (Sigma-Aldrich, Taufkirchen, Germany) at pH 7.35. To visualize transfected cells, they were co-transfected with cDNA encoding for enhanced green fluorescent protein (EGFP) contained in the pEGFP-N1 expression vector (Clontech, Palo Alto, USA). The corresponding cDNA (5μg for the GlyR and 2.5μg for EGFP) was added to 400μl of the cell suspension and the mixture was rapidly transferred into the electroporation cuvette. For transfection we used an electroporation device by EquiBio (Kent, UK) and a 4mm aluminum electrode electroporation cuvette (Peqlab, Erlangen, Germany).
(§3) The phenol derivative 4-chloropropofol ([…]) was provided as pure substance by Prof. Paul M. O’Neill (University of Liverpool, England), prepared as light-protected 1M stock solution in ethanol (EtOH, J.T.Baker, Griesheim, Germany) and stored in glass vessels at −20°C.
(§4) Drug-containing vials were vigorously vortexed for 30min. Patch electrodes were filled with an intracellular solution of [mM] KCl 140, MgCl2 2, EGTA 11, HEPES 10, glucose 11, CaCl2 1 with pH 7.3, adjusted with 1 M KOH and a bath solution contained [mM] NaCl 162, KCl 5.31, NaHPO4 0.85, KH2PO4 0.22, HEPES 15, glucose 6.11, pH 7.4 adjusted with 1 M NaOH. Osmolarity of both solutions was set at 280–300 mOsmol.
(§5) Whole-cell experiments were performed at a holding potential of −30 mV with a mean seal resistance of 1 GΩ. […] A fast liquid filament switch technique was used for the application of the agonist, presented in pulses of 2 s duration every 20 s. The liquid filament switch technique is able to exchange the solution passing an outside-out patch or small whole-cells within 1–2 ms. We calculated flow rate of background solution through the chamber with 3,4 ml/min corresponding to 4% of maximal pump rate. With regard to the chamber volume of 100 μl the exchange solution time within the chamber was assessed to approximately […], dependent on cell size accordingly. Piezo-switch and small diameter capillary (ID 0.15 mm) within the measurement chamber promoted the millisecond solution exchange. […] The induced current (I) by this saturating control solution was defined as Icontrol. […] The stability of the seal was controlled during the complete experiment via control of the seal resistance. A variation of 10-20% of the basic value was regarded as tolerable.

[2] = target: T2, human α1S267I-GlyR expressed in HEK 293 cells (Homo sapiens, UniProt P23415, S295I); conditions: S267I
T2 sequence (P23415 29-457 S295I): T1 sequence (P23415 29-457 R299L) with S267I, L271R
Excerpt: as §1, §2, §3, §4, §5

[3] = 10-90% of Imax, monoexponential fit

In the case of `NCC(=O)O` [glycine], the “Current amplitude [% of mean WT current amplitude] ± SEM” value [1] is reported as 20.5±12%, the “nH ± SEM (Hill coefficient), glycine activation” value [1] is reported as 1.8±0.7 and the “Rise time ± SEM” value [1, 3] is reported as 998 ± 129 ms. The “Mean current amplitude ± SEM” value ([1]; saturating glycine 300 mM) was 336±51 pA, the “Current amplitude [% of mean WT current amplitude] ± SEM” value [2] was 68.2±68% and the “nH ± SEM (Hill coefficient), glycine activation” value [2] was 1.1±0.2. For the same molecule, the “Rise time ± SEM” value [2, 3] was 6.6 ± 2.5 ms and the “Mean current amplitude ± SEM” value ([2]; saturating glycine 1 mM) was 1122±765 pA.
